Data as given in patent publication US20070003976A1, “Car ligand-binding domain polypeptide co-crystallized with a ligand, and methods of designing ligands that modulate car activity” (SMITHKLINE BEECHAM CORPORATION, priority 2003, published 2007).

Biological target: T1, human CAR LBD protein (Homo sapiens, UniProt Q14994)
T1 construct: made in house; host or cells: E. coli BL21 (DE3), pRSETA vector
T1 sequence (Q14994 103-348 isoform Q14994-2): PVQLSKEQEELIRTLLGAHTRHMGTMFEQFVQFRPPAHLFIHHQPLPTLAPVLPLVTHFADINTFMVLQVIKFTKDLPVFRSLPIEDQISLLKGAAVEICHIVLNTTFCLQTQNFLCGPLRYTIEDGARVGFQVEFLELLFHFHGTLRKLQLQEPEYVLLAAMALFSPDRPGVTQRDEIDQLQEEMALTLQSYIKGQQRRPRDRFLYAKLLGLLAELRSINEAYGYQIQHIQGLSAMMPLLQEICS
Assay: Fluorescence Resonance Energy Transfer (FRET) Ligand Sensing Assay: CAR LBD / SRC-1 coactivator peptide interaction
Format: biochemical
Protocol: Screening of synthetic compound libraries with the purified CAR LBD protein by a Fluorescence Resonance Energy Transfer (FRET) Ligand Sensing Assay (Parks et al., 1999) was conducted to identify molecules that alter the basal interaction between a coactivator peptide and the CAR LBD protein. Briefly, the purified human CAR LBD protein was biotinylated and labeled with streptavidin-conjugated fluorophore allophycocyanin. The labeled CAR LBD protein was incubated with a test compound and with a peptide that included the second LXXLL binding motif of the nuclear coactivator SRC-1 (GenBank Accession No. U59302; amino acids 676-700) that was labeled with europium chelate. Data were collected with a WALLAC VICTOR™ fluorescence reader (available from PerkinElmer Life Sciences Inc., Boston, Mass., United States of America) in a time resolved mode and the fluorescence ratio calculated.

NC(=O)c1ccc2nc(NC(c3ccccc3)c3ccccc3)n(CCc3ccccc3)c2c1 [Compound 1, 2-(benzhydrylamino)-1-(2-phenylethyl)-1H-benzimidazole-6-carboxamide]
EC50 (dose response curves with purified CAR LBD protein, reduction of basal CAR LBD/SRC-1 peptide FRET signal (inverse agonist)): 0.015 µM | effect on basal fluorescent signal (CAR LBD/SRC-1 interaction) (screen of synthetic compound libraries, time resolved fluorescence ratio): inverse agonist molecule that reduces the basal fluorescent signal
